From patent publication US10308615B2, “Heterocyclic compounds as inhibitors of Vanin-1 enzyme” (Pfizer Inc., priority 2015, dated 2019)

Each compound was assayed on DSS-induced colitis (assay: DSS (Dextran Sodium Sulfate)-induced colitis mouse model of IBD). Settings: 50 mg/kg sc QD days -1-14, 4% DSS, female BALB/C mice.
Type: in vivo, mice
Procedure: Induced Colitis Mouse Model Methods
Example 1 along with sulfasalazine was evaluated in DSS (Dextran Sodium Sulfate) —induced colitis mouse model of IBD. Experimental colitis was induced in healthy young female BALB/C mice by providing 4% DSS; molecular weight 36,000-50,000 (wt/vol) in drinking water ad-libitium for seven days followed by water alone for another seven days. At the commencement of the study, mice were between 7-8 weeks of age, weighing 18-20 g. All the mice were obtained from The Jackson Laboratory, Bar Harbor, Me. 04609 USA. The test articles Example 1 and vehicle were administered subcutaneously (sc) once a day beginning day −1 and continued till day 14. The positive control, Sulfasalazine was dosed orally (po) once a day beginning day 5 and continued till day 14 (Table 2). The body weights were recorded prior to dosing and daily thereafter for fourteen days. Clinical assessments of the mice were performed every other day beginning day 5. The clinical assessment includes body weight, stool consistency and the presence of blood in the stools and scored accordingly to the Table-3. At the end of the study mice were sacrificed using CO2 asphyxiation and colon from the colocecal junction to the anus was removed, washed and cleaned of all fecal matter using PBS, measured and weighed. The data are presented as the mean±standard error (SEM). Data were analyzed using two-way ANOVA using Bonferroni post-test. groups were considered significant at p<0.05.
With N#Cc1cccc(C(=O)c2cnc(NC3(c4cncnc4)CC3)nc2)c1 [Example 1, 3-[(2-{[1-(pyrimidin-5-yl)cyclopropyl]amino}pyrimidin-5-yl)carbonyl]benzonitrile] the “Disease Activity Index (DAI)” value was “mark improvement”, the colon length was “mark improvement” and the “loss of body weight” value was “mark improvement”.

Same assay, conditions: 100 mg/kg po QD days 5-14, positive control
With O=C(O)c1cc(/N=N/c2ccc(S(=O)(=O)Nc3ccccn3)cc2)ccc1O [Sulfasalazine, reference compound] the “improvement in the colitis (FIG. 1-3)” value was “improvement in the colitis”.

The compounds below were run against T1, human vanin-1 (Homo sapiens (Human), UniProt O95497) (assay: Human Vanin-1 Enzyme Assay 1). Settings: 25 pM human vanin-1, 50 uM pantetheine 7-amino-4-trifluoromethylcoumarin, 30 min preincubation, 60 min.
T1 sequence (O95497 22-491): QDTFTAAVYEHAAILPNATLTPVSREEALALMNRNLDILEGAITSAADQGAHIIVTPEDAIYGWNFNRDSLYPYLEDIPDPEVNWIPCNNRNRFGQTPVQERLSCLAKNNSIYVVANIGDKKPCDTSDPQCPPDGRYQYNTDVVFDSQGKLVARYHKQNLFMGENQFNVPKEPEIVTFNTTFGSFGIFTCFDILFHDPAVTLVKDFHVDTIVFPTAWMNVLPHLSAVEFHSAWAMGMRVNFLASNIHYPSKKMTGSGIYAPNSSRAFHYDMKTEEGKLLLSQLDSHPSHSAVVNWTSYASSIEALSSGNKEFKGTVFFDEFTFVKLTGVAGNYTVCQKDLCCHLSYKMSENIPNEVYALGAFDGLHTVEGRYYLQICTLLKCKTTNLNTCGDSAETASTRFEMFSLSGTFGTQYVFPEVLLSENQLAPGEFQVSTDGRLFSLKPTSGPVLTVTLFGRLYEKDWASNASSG
Type: biochemical
Summary of the method: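 Purified His6/FLAG-tagged extracellular domain of human vanin-1, secreted from CHO cells, at 25 pM final in 50 mM Tris-HCl pH 8.0, 50 mM KCl, 0.005% Brij-35, 1.6 mM cysteamine, 0.5% DMSO. Inhibitor preincubated 30 min at room temperature; 50 uM pantetheine-AFC substrate, 60 min, fluorescence at 405/510 nm; 11-point four-fold dilution series.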
N#Cc1cccc(C(=O)c2cnc(NC3(c4cncnc4)CC3)nc2)c1 [Example 1, 3-[(2-{[1-(pyrimidin-5-yl)cyclopropyl]amino}pyrimidin-5-yl)carbonyl]benzonitrile] gave an IC50 of 4.1 nM.
For N#Cc1cccc(C(=O)c2cnc(NCc3ccc(C(N)=O)nc3)nc2)c1 [Example 105, 5-({[5-(3-cyanobenzoyl)pyrimidin-2-yl]amino}methyl) pyridine-2-carboxamide], the IC50 was 146 nM.
In the case of N#Cc1cccc(C(=O)c2cnc(NCc3ccc(F)cc3)nc2)c1 [Example 31, 3-({2-[(4-fluorobenzyl)amino]pyrimidin-5-yl}carbonyl) benzonitrile], the IC50 is reported as 102 nM.
N#Cc1cccc(C(=O)c2cnc(NCc3ccc(Cl)cc3)nc2)c1 [Example 28, 3-({2-[(4-chlorobenzyl)amino]pyrimidin-5-yl}carbonyl) benzonitrile] was tested, and the IC50 was 38.2 nM.
In the case of O=C(c1cnc(NC2(c3ccccc3)CC2)nc1)c1cccc(C(F)(F)F)c1 [Example 66, {2-[(1-phenylcyclopropyl)amino]pyrimidin-5-yl}[3-(trifluoromethyl)phenyl]methanone], the IC50 is reported as 21.3 nM.
O=C(c1cnc(NCc2cnccn2)nc1)c1cccc(C(F)(F)F)c1 [Example 11, {2-[(pyrazin-2-ylmethyl)amino]pyrimidin-5-yl}[3-(trifluoromethyl)phenyl]methanone] was tested, and the IC50 was 6.4 nM.
O=C(c1cnc(NCc2cccnc2)nc1)c1ccccc1Cl [Example 102, (2-chlorophenyl){2-[(pyridin-3-ylmethyl)amino]pyrimidin-5-yl}methanone] was tested, and the IC50 was 858 nM.
O=C(c1cnc(NCc2cccnc2)nc1)c1ccc2c(c1)OCCO2 [Example 98, 2,3-dihydro-1,4-benzodioxin-6-yl{2-[(pyridin-3-ylmethyl)amino]pyrimidin-5-yl}methanone] was tested, and the IC50 was 102 nM.
N#Cc1cccc(C(=O)c2cnc(NCc3ccc(F)cc3F)nc2)c1 [Example 30, 3-({2-[(2,4-difluorobenzyl)amino]pyrimidin-5-yl}carbonyl) benzonitrile] gave an IC50 of 36.4 nM.
NC(=O)c1ccc(CNc2ncc(C(=O)c3ccccc3)cn2)cc1 [Example 106, 4-{[(5-benzoylpyrimidin-2-yl)amino]methyl} benzamide] was tested, and the IC50 was 387 nM.
COc1cccc(C(=O)c2cnc(NCc3ccccc3)nc2)c1 [Example 45, [2-(benzylamino)pyrimidin-5-yl](3-methoxyphenyl) methanone] showed an IC50 of 794 nM.
With COc1ccc(CNc2ncc(C(=O)c3cccc(C#N)c3)cn2)cc1 [Example 29, 3-({2-[(4-methoxybenzyl)amino]pyrimidin-5-yl}carbonyl) benzonitrile] the IC50 was 122 nM.
For N#Cc1cccc(C(=O)c2cnc(NCc3cncnc3)nc2)c1 [Example 120, 3-({2-[(pyrimidin-5-ylmethyl)amino]pyrimidin-5-yl}carbonyl) benzonitrile], the IC50 was 36 nM.
O=C(c1ccccc1)c1cnc(NCc2cncnc2)nc1 [Example 109, phenyl{2-[(pyrimidin-5-ylmethyl)amino]pyrimidin-5-yl}methanone] showed an IC50 of 143 nM.
With N#Cc1cccc(C(=O)c2cnc(NCc3cccnn3)nc2)c1 [Example 108, 3-({2-[(pyridazin-3-ylmethyl)amino]pyrimidin-5-yl}carbonyl) benzonitrile] the IC50 was 111 nM.
For CC(C)(Nc1ncc(C(=O)c2cccc(C(F)(F)F)c2)cn1)c1ccccc1 [Example 121, {2-[(2-phenylpropan-2-yl)amino]pyrimidin-5-yl}[3-(trifluoromethyl)phenyl]methanone], the IC50 was 32.3 nM.
Work on O=C(c1cnc(NCc2cccnc2)nc1)c1cccs1 [Example 100, {2-[(pyridin-3-ylmethyl)amino]pyrimidin-5-yl}(thiophen-2-yl)methanone] yielded an IC50 of 162 nM.

What follows are compounds tested against T1, human vanin-1 (assay: Human Vanin-1 Enzyme Assay 2). Settings: 1 nM human vanin-1, 10 uM substrate, 45 min.
Type: biochemical
Summary of the method: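 Purified CHO-expressed His/FLAG-tagged human vanin-1 extracellular domain (1 nM) cleaved pantetheine-AMC-CF3 substrate (10 uM) in pH 8.0 Tris buffer with 1.5 mM cysteamine and 1% DMSO. Fluorescence (ex 405/em 505 nm) was read after 45 min, over an 11-point half-log inhibitor series.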
Compound N#Cc1cccc(C(=O)c2cnc(NC3(c4cncnc4)CC3)nc2)c1 [Example 1, 3-[(2-{[1-(pyrimidin-5-yl)cyclopropyl]amino}pyrimidin-5-yl)carbonyl]benzonitrile] has an IC50 of 7 nM.
N#Cc1cccc(C(=O)c2cnc(NCc3ccc(C(N)=O)nc3)nc2)c1 [Example 105, 5-({[5-(3-cyanobenzoyl)pyrimidin-2-yl]amino}methyl) pyridine-2-carboxamide] gave an IC50 of 195 nM.
Work on N#Cc1cccc(C(=O)c2cnc(NCc3ccc(F)cc3)nc2)c1 [Example 31, 3-({2-[(4-fluorobenzyl)amino]pyrimidin-5-yl}carbonyl) benzonitrile] yielded an IC50 of 57.2 nM.
For N#Cc1cccc(C(=O)c2cnc(NCc3ccc(Cl)cc3)nc2)c1 [Example 28, 3-({2-[(4-chlorobenzyl)amino]pyrimidin-5-yl}carbonyl) benzonitrile], the IC50 was 21.8 nM.
For O=C(c1cnc(NC2(c3ccccc3)CC2)nc1)c1cccc(C(F)(F)F)c1 [Example 66, {2-[(1-phenylcyclopropyl)amino]pyrimidin-5-yl}[3-(trifluoromethyl)phenyl]methanone], the IC50 was 44.8 nM.
In the case of O=C(c1cnc(NCc2cnccn2)nc1)c1cccc(C(F)(F)F)c1 [Example 11, {2-[(pyrazin-2-ylmethyl)amino]pyrimidin-5-yl}[3-(trifluoromethyl)phenyl]methanone], the IC50 is reported as 9 nM.
For O=C(c1cnc(NCc2cccnc2)nc1)c1ccccc1Cl [Example 102, (2-chlorophenyl){2-[(pyridin-3-ylmethyl)amino]pyrimidin-5-yl}methanone], the IC50 was 549 nM.
Compound O=C(c1cnc(NCc2cccnc2)nc1)c1ccc2c(c1)OCCO2 [Example 98, 2,3-dihydro-1,4-benzodioxin-6-yl{2-[(pyridin-3-ylmethyl)amino]pyrimidin-5-yl}methanone] has an IC50 of 149 nM.
Work on N#Cc1cccc(C(=O)c2cnc(NCc3ccc(F)cc3F)nc2)c1 [Example 30, 3-({2-[(2,4-difluorobenzyl)amino]pyrimidin-5-yl}carbonyl) benzonitrile] yielded an IC50 of 35.5 nM.
Work on NC(=O)c1ccc(CNc2ncc(C(=O)c3ccccc3)cn2)cc1 [Example 106, 4-{[(5-benzoylpyrimidin-2-yl)amino]methyl} benzamide] yielded an IC50 of 990 nM.
COc1cccc(C(=O)c2cnc(NCc3ccccc3)nc2)c1 [Example 45, [2-(benzylamino)pyrimidin-5-yl](3-methoxyphenyl) methanone] gave an IC50 of 188 nM.
COc1ccc(CNc2ncc(C(=O)c3cccc(C#N)c3)cn2)cc1 [Example 29, 3-({2-[(4-methoxybenzyl)amino]pyrimidin-5-yl}carbonyl) benzonitrile] was tested, and the IC50 was 72.7 nM.
N#Cc1cccc(C(=O)c2cnc(NCc3cncnc3)nc2)c1 [Example 120, 3-({2-[(pyrimidin-5-ylmethyl)amino]pyrimidin-5-yl}carbonyl) benzonitrile] was tested, and the IC50 was 37.8 nM.
O=C(c1ccccc1)c1cnc(NCc2cncnc2)nc1 [Example 109, phenyl{2-[(pyrimidin-5-ylmethyl)amino]pyrimidin-5-yl}methanone] was tested, and the IC50 was 145 nM.
N#Cc1cccc(C(=O)c2cnc(NCc3cccnn3)nc2)c1 [Example 108, 3-({2-[(pyridazin-3-ylmethyl)amino]pyrimidin-5-yl}carbonyl) benzonitrile] showed an IC50 of 110 nM.
CC(C)(Nc1ncc(C(=O)c2cccc(C(F)(F)F)c2)cn1)c1ccccc1 [Example 121, {2-[(2-phenylpropan-2-yl)amino]pyrimidin-5-yl}[3-(trifluoromethyl)phenyl]methanone] gave an IC50 of 50.4 nM.
O=C(c1cnc(NCc2cccnc2)nc1)c1cccs1 [Example 100, {2-[(pyridin-3-ylmethyl)amino]pyrimidin-5-yl}(thiophen-2-yl)methanone] gave an IC50 of 122 nM.

What follows are compounds tested against T1, human vanin-1 (assay: Human Vanin-1 Enzyme Assay 3). Settings: 2 nM human vanin-1, 10 uM substrate, 15 min.
Type: biochemical
Summary of the method: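 His/FLAG-tagged extracellular domain of human vanin-1 from CHO cells, used at 2 nM final, with 10 uM pantetheine-AFC substrate. Buffer: 50 mM Tris-HCl pH 8.0, 50 mM KCl, 0.005% Brij-35, 1.5 mM cysteamine, 1% DMSO. 15 min at room temperature; fluorescence read at 405/505 nm across an 11-point 2-fold dilution series.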
N#Cc1cccc(C(=O)c2cnc(NCc3ccc(C(N)=O)nc3)nc2)c1 [Example 105, 5-({[5-(3-cyanobenzoyl)pyrimidin-2-yl]amino}methyl) pyridine-2-carboxamide] was tested, and the IC50 was 173 nM.
N#Cc1cccc(C(=O)c2cnc(NCc3ccc(F)cc3)nc2)c1 [Example 31, 3-({2-[(4-fluorobenzyl)amino]pyrimidin-5-yl}carbonyl) benzonitrile] gave an IC50 of 14 nM.
With N#Cc1cccc(C(=O)c2cnc(NCc3ccc(Cl)cc3)nc2)c1 [Example 28, 3-({2-[(4-chlorobenzyl)amino]pyrimidin-5-yl}carbonyl) benzonitrile] the IC50 was 8.4 nM.
In the case of O=C(c1cnc(NC2(c3ccccc3)CC2)nc1)c1cccc(C(F)(F)F)c1 [Example 66, {2-[(1-phenylcyclopropyl)amino]pyrimidin-5-yl}[3-(trifluoromethyl)phenyl]methanone], the IC50 is reported as 10.6 nM.
In the case of O=C(c1cnc(NCc2cnccn2)nc1)c1cccc(C(F)(F)F)c1 [Example 11, {2-[(pyrazin-2-ylmethyl)amino]pyrimidin-5-yl}[3-(trifluoromethyl)phenyl]methanone], the IC50 is reported as < 6.2 nM.
For O=C(c1cnc(NCc2cccnc2)nc1)c1ccccc1Cl [Example 102, (2-chlorophenyl){2-[(pyridin-3-ylmethyl)amino]pyrimidin-5-yl}methanone], the IC50 was 722 nM.
O=C(c1cnc(NCc2cccnc2)nc1)c1ccc2c(c1)OCCO2 [Example 98, 2,3-dihydro-1,4-benzodioxin-6-yl{2-[(pyridin-3-ylmethyl)amino]pyrimidin-5-yl}methanone] gave an IC50 of 55.5 nM.
For N#Cc1cccc(C(=O)c2cnc(NCc3ccc(F)cc3F)nc2)c1 [Example 30, 3-({2-[(2,4-difluorobenzyl)amino]pyrimidin-5-yl}carbonyl) benzonitrile], the IC50 was 16.8 nM.
NC(=O)c1ccc(CNc2ncc(C(=O)c3ccccc3)cn2)cc1 [Example 106, 4-{[(5-benzoylpyrimidin-2-yl)amino]methyl} benzamide] showed an IC50 of 423 nM.
With COc1cccc(C(=O)c2cnc(NCc3ccccc3)nc2)c1 [Example 45, [2-(benzylamino)pyrimidin-5-yl](3-methoxyphenyl) methanone] the IC50 was 144 nM.
For COc1ccc(CNc2ncc(C(=O)c3cccc(C#N)c3)cn2)cc1 [Example 29, 3-({2-[(4-methoxybenzyl)amino]pyrimidin-5-yl}carbonyl) benzonitrile], the IC50 was 107 nM.
In the case of N#Cc1cccc(C(=O)c2cnc(NCc3cncnc3)nc2)c1 [Example 120, 3-({2-[(pyrimidin-5-ylmethyl)amino]pyrimidin-5-yl}carbonyl) benzonitrile], the IC50 is reported as 16.6 nM.
Work on O=C(c1ccccc1)c1cnc(NCc2cncnc2)nc1 [Example 109, phenyl{2-[(pyrimidin-5-ylmethyl)amino]pyrimidin-5-yl}methanone] yielded an IC50 of 95.3 nM.
N#Cc1cccc(C(=O)c2cnc(NCc3cccnn3)nc2)c1 [Example 108, 3-({2-[(pyridazin-3-ylmethyl)amino]pyrimidin-5-yl}carbonyl) benzonitrile] gave an IC50 of 96.7 nM.
In the case of CC(C)(Nc1ncc(C(=O)c2cccc(C(F)(F)F)c2)cn1)c1ccccc1 [Example 121, {2-[(2-phenylpropan-2-yl)amino]pyrimidin-5-yl}[3-(trifluoromethyl)phenyl]methanone], the IC50 is reported as 9.1 nM.
For O=C(c1cnc(NCc2cccnc2)nc1)c1cccs1 [Example 100, {2-[(pyridin-3-ylmethyl)amino]pyrimidin-5-yl}(thiophen-2-yl)methanone], the IC50 was 145 nM.
